Measured values published in US8906855B2, “Methods and compositions for treating conditions related to lack of blood supply, shock and neuronal injuries” (Vivacelle Bio, Inc., priority 2007, dated 2014).

Assays:
[1] = cited from earlier work
[2] = Nitric oxide uptake/content of the emulsion by mass spectrometry; conditions: equilibrated 60 minutes with 100 ppm nitric oxide in helium; ten samples
Method: Some samples (1 ml each) were left open to air in 2.0 ml tubes for 30 minutes prior to dissolved gas analysis. In other experiments the emulsion was placed into a 15 ml tube. The headspace was filled with the gas under study and the gas was allowed to enter the emulsion by equilibration over 60 minutes with the tube on its side to increase the gas emulsion interaction. 50 μL drawn from each of these fluids were injected into a Sievers purge vessel at 37° C. containing 36 ml of a mildly acidic solution consisting of 32 ml of 1M HCL and 4 ml of 0.5M ascorbic acid. […] Signals generated at m/z=32 upon injection of RL and lipid emulsion samples were integrated using Peakfit and compared to those obtained with distilled water.
In another set of experiments we measured the uptake of nitric oxide by a commercially available 20% soybean oil emulsion, Liposyn III 20%. This emulsion contains 20% soybean oil, 1.2% egg phospholipids and 2.5% glycerin in water. Using NaOH pH was adjusted to 8.3. […] 100 ppm nitric oxide in helium was used to purge the headspace for two minutes taking care not to bubble the fluid. For sixty minutes the sample was allowed to reach gas-liquid equilibrium with the tube placed on its side to maximize gas-emulsion contact. The ***nitric oxide content was measured in ten samples that were equilibrated with nitric oxide and ten samples that were equilibrated with room air.

[3] = 1 atm; from The Engineering Toolbox; cited from earlier work
[4] = Battion et al. 1968; cited from earlier work
[5] = published value; cited from earlier work

In the case of [Xe] [Xenon], the “minimum alveolar concentration (MAC)” value ([1]; anesthetic) is listed as 71% and the “more potent than N2O as an anesthetic” value ([1]; in vivo) is listed as 50%.

In the case of O [Water, water], the “nitric oxide content, mean and standard error” value [2] is given as 2.12×10^−3+/−0.17×10^−3 and the “Oxygen Content at 25° C. and Sea level Pressure” value [3] is given as 8.3 mg/L.

For O=O [Oxygen], the “solubility in lipid relative to water” value [4] is given as 4.41 times.

In the case of hemoglobin, the oxygen release time [5] is listed as 17.5 ms.
